The record followed here is patent US20140005163A1 (NOVARTIS AG, priority 2010, published 2014).

Values after ≈ are worked out from the molar mass of the structure shown.

The test system of data set [1] is PKB Ser473 phosphorylation in Rat1-myr-HA-p110 delta cells. The experiment in a line: Reverse protein array assay, PKB Ser473 phosphorylation in Rat1-myr-p110 delta cells. Particulars: read-out: p-PKB IC50. Type of data set: cell-based. In short, it runs like this: (§1)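 Cells: Rat1-myr-HA-p110 alpha/beta/delta, seeded ≥20 h. Lysis on ice 10 min; reverse-phase protein array, 4 lysate dilutions; fluorescence read, relative intensity.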

The target in data set [2] is T1, PI3K delta (Homo sapiens, UniProt O00329).
T1 construct: for the full-length p110-d subunit are generated and fused by overlapping PCR; p85(iSH2) fusion partner (see partner chain) (N); His tag (C); made in house; host or cells: baculovirus; Tn5 (Trichoplusia ni) or TiniPro insect cells
T1 sequence (O00329 with tags, fused parts or gaps limits assumed): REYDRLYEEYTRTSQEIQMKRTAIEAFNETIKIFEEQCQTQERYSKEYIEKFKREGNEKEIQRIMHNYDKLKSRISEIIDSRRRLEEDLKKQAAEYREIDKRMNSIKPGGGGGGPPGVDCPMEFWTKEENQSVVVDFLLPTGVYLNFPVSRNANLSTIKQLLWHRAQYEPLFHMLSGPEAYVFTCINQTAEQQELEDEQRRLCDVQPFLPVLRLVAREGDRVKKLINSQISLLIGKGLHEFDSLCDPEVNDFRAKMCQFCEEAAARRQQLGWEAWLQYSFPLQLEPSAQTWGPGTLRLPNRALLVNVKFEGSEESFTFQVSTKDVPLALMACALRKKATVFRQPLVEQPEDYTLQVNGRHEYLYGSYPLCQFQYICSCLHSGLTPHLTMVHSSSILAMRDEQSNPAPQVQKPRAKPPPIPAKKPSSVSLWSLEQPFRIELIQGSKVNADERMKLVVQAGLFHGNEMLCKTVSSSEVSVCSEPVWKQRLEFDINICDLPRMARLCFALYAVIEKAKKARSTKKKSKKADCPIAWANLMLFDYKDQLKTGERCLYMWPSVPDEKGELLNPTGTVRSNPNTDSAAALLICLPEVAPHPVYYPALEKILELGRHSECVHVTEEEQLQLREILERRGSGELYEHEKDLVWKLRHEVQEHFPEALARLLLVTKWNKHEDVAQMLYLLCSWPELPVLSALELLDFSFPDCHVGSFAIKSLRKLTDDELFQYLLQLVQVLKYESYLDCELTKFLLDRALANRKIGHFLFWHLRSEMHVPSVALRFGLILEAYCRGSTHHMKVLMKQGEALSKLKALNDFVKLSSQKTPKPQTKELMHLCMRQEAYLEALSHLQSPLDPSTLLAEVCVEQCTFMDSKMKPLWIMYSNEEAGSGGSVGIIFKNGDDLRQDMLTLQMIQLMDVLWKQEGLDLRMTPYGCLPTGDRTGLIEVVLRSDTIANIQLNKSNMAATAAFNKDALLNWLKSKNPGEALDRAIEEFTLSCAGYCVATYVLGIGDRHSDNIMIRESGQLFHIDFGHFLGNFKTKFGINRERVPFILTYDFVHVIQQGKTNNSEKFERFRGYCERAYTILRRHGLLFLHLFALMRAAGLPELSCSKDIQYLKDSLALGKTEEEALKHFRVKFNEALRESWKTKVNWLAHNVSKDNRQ
As to the kind of experiment: PI3K delta kinase assay (Kinase-Glo luminescence). It is filed as biochemical. In a few lines: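 Kinase-Glo luminescence read-out of ATP remaining after 60 min at RT. Enzyme: 10 nM BV1060 (p85 iSH2–p110δ fusion, His-tagged); substrate 10 μg/mL PI, ATP 1 μM final; Tris pH 7.5 buffer with MgCl2, NaCl, CHAPS, DTT. IC50 from 4-parameter logistic fit over 8 concentrations.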
(Kinase-Glo reads ATP consumption through a luciferase reaction.)

Data set [3] can be described thus: Solubility at pH 6.8. It is filed as physicochemical. Particulars: pH 6.8, aqueous buffer, thermodynamic from solid; read-out: solubility. In a few lines:
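Solubility was measured at pH 6.8 following the cited Zhou et al. (2007) procedure.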

For data set [4], the target named is T2, PI3K beta (Homo sapiens, UniProt P42338).
T2 construct: for the full-length p110-b subunit are generated and fused by overlapping PCR; p85(iSH2) fusion partner (see partner chain) (N); His tag (C); made in house; host or cells: baculovirus; Tn5 (Trichoplusia ni) or TiniPro insect cells
T2 sequence (P42338 with tags, fused parts or gaps limits assumed): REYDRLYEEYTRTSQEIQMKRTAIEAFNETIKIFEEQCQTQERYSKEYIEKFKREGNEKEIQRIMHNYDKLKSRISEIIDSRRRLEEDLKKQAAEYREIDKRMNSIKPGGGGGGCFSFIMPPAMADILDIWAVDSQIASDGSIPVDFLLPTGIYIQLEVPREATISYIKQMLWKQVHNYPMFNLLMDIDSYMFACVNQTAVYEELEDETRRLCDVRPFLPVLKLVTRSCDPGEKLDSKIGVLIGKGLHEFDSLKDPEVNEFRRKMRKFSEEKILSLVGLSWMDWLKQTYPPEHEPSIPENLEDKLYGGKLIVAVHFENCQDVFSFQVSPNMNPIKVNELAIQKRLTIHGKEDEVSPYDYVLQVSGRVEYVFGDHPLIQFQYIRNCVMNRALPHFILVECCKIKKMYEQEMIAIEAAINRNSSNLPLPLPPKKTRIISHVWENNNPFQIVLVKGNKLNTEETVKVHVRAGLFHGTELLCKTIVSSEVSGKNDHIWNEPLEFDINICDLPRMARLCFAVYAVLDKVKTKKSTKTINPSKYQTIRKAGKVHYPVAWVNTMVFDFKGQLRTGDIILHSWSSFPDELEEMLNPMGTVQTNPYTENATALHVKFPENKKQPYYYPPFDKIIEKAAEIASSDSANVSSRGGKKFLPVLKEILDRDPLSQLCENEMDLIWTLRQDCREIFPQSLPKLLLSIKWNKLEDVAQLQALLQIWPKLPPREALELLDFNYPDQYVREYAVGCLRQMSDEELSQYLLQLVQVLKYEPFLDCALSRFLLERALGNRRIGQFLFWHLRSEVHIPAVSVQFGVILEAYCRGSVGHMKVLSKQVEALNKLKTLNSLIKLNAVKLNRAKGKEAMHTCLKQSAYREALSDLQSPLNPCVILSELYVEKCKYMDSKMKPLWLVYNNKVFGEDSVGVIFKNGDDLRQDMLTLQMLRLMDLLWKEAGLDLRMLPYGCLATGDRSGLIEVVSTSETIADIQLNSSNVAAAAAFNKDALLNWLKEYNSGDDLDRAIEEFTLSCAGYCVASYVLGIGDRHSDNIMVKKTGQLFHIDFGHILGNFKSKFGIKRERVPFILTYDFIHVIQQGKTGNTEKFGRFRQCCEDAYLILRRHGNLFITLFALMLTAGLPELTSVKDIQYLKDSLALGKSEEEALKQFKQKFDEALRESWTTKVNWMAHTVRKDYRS
The experiment in a line: PI3K beta kinase assay (Kinase-Glo luminescence). It is filed as biochemical. In a few lines:
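Full-length p110β with a Gly-linked p85 iSH2 and a C-terminal His tag (BV949, 25 nM) was incubated with 10 μg/mL phosphatidylinositol and 1 μM ATP in 10 mM Tris pH 7.5, 3 mM MgCl2, 50 mM NaCl, 0.05% CHAPS, 1 mM DTT for 60 min at room temperature. Residual ATP was read by Kinase-Glo luminescence.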

For data set [5], the system named is PKB Ser473 phosphorylation in Rat1-myr-HA-p110 beta cells. As to the kind of experiment: Reverse protein array assay, PKB Ser473 phosphorylation in Rat1-myr-p110 beta cells. It is filed as cell-based. The settings on record: 0.5 h, pAkt Ser473, 30 minutes incubation, read-out: p-PKB IC50. In short, it runs like this: as §1

As a reminder, the IC50 is the concentration needed to halve the response being measured. For orientation: solubility means how much of the substance goes into solution per volume. `CCn1cc(-n2c(=O)n(C)c3cnc4ccc(-c5cnc(OC)nc5OC)cc4c32)c(C)n1` [Example 234.1, 8-(2,4-Dimethoxy-pyrimidin-5-yl)-1-(1-ethyl-3-methyl-1H-pyrazol-4-yl)-3-methyl-1,3-dihydro-imidazo[4,5-c]quinolin-2-one]: the IC50 in data set [1] stood at 26 nM; in data set [2], 9 nM; in data set [4] it was 119 nM; in data set [5] it was 17 nM. Further, the solubility in data set [3] came out at 58 µg/mL (≈ 130 µM).
For the molecule `CCN(C)c1cncc(-c2ccc3ncc4c(c3c2)n(-c2cn(C)nc2C)c(=O)n4C)c1` [Example 176, 1-(1,3-Dimethyl-1H-pyrazol-4-yl)-8-[5-(ethyl-methyl-amino)-pyridin-3-yl]-3-methyl-1,3-dihydro-imidazo[4,5-c]quinolin-2-one], the IC50 in data set [1] amounted to 48 nM; in data set [2] it was 15 nM; in data set [4], 33 nM; in data set [5], 7 nM. In addition, in data set [3], the solubility is 59 µg/mL (≈ 138 µM).
For the molecule `CCOc1cc(-c2ccc3ncc4c(c3c2)n(-c2cn(C)nc2C)c(=O)n4C)cnc1CO` [Example 243, 1-(1,3-Dimethyl-1H-pyrazol-4-yl)-8-(5-ethoxy-6-hydroxymethyl-pyridin-3-yl)-3-methyl-1,3-dihydro-imidazo[4,5-c]quinolin-2-one], the IC50 in data set [1] was 91 nM; in data set [2] it was 7 nM; in data set [4] it was 47 nM; in data set [5], 45 nM. Besides, the solubility in data set [3] was determined as 43 µg/mL (≈ 96.7 µM).
`Cc1nn(C(C)C)cc1-n1c(=O)n(C)c2cnc3ccc(-c4ccc(CO)nc4)cc3c21` [Example 16.3, 8-(6-hydroxymethyl-pyridin-3-yl)-1-(1-isopropyl-3-methyl-1H-pyrazol-4-yl)-3-methyl-1,3-dihydro-imidazo[4,5-c]quinolin-2-one]: the IC50 in data set [1] amounted to 125 nM; in data set [2] it was 27 nM; in data set [4], 404 nM; in data set [5], 39 nM. Besides, in data set [3], the solubility is greater than 428 µg/mL.
For `COc1ccc(-c2ccc3ncc4c(c3c2)n(-c2cn(CCO)nc2C)c(=O)n4C)cn1` [Example 103.1, 1-[1-(2-Hydroxy-ethyl)-3-methyl-1H-pyrazol-4-yl]-8-(6-methoxy-pyridin-3-yl)-3-methyl-1,3-dihydro-imidazo[4,5-c]quinolin-2-one] the same measures were 66 nM, 19 nM, 101 nM, 30 nM and 38 µg/mL (≈ 88.3 µM).
With `CCNc1cc(-c2ccc3ncc4c(c3c2)n(-c2cn(CC)nc2C)c(=O)n4C)cnc1COC` [Example 157, 8-(5-Ethylamino-6-methoxymethyl-pyridin-3-yl)-1-(1-ethyl-3-methyl-1H-pyrazol-4-yl)-3-methyl-1,3-dihydro-imidazo[4,5-c]quinolin-2-one], the IC50 in data set [1] came out at 12 nM; in data set [2], 9 nM; in data set [4], 28 nM; in data set [5] it was 8 nM. In addition, in data set [3], the solubility was greater than 472 µg/mL.
As for `COc1cncc(-c2ccc3ncc4c(c3c2)n(-c2cn(C)nc2C)c(=O)n4C)c1` [Example 12, 1-(1,3-Dimethyl-1H-pyrazol-4-yl)-8-(5-methoxy-pyridin-3-yl)-3-methyl-1,3-dihydro-imidazo[4,5-c]quinolin-2-one], the IC50 was 79 nM in data set [1], 31 nM in data set [2], 21 nM in data set [4] and 38 nM in data set [5]. In data set [3], the solubility came to 39 µg/mL (≈ 97.4 µM).
For `CCn1cc(-n2c(=O)n(C)c3cnc4ccc(-c5cncc(OC(C)C)c5)cc4c32)c(C)n1` [Example 58.4, 1-(1-Ethyl-3-methyl-1H-pyrazol-4-yl)-8-(5-isopropoxy-pyridin-3-yl)-3-methyl-1,3-dihydro-imidazo[4,5-c]quinolin-2-one], in that order: 86 nM, 12 nM, 29 nM, 139 nM and 27 µg/mL (≈ 61 µM).
Consider `CCOc1ccc(-c2ccc3ncc4c(c3c2)n(-c2cn(C)nc2C)c(=O)n4C)cn1` [Example 3.1, 1-(1,3-Dimethyl-1H-pyrazol-4-yl)-8-(6-ethoxy-pyridin-3-yl)-3-methyl-1,3-dihydro-imidazo[4,5-c]quinolin-2-one], for which the IC50 is 42 nM in data set [1], 37 nM in data set [2], 192 nM in data set [4] and 20 nM in data set [5]. Also, in data set [3], the solubility is 15 µg/mL (≈ 36.2 µM).
As for `CCNc1cc(-c2ccc3ncc4c(c3c2)n(-c2c(C)nn(C)c2C)c(=O)n4C)cnc1CO` [Example 155.4, 8-(5-Ethylamino-6-hydroxymethyl-pyridin-3-yl)-3-methyl-1-(1,3,5-trimethyl-1H-pyrazol-4-yl)-1,3-dihydro-imidazo[4,5-c]quinolin-2-one], the IC50 in data set [1] worked out at 59 nM; in data set [2], 11 nM; in data set [4], 55 nM; in data set [5] it was 47 nM. Besides, the solubility in data set [3] worked out at 62 µg/mL (≈ 136 µM).
In the case of `COCCOc1cncc(-c2ccc3ncc4c(c3c2)n(-c2cn(C)nc2C)c(=O)n4C)c1` [Example 59.1, 1-(1,3-Dimethyl-1H-pyrazol-4-yl)-8-[5-(2-methoxy-ethoxy)-pyridin-3-yl]-3-methyl-1,3-dihydro-imidazo[4,5-c]quinolin-2-one], the IC50 in data set [1] amounted to 204 nM; in data set [2], 91 nM; in data set [4], 89 nM; in data set [5] it was 265 nM. Further, the solubility in data set [3] is greater than 444 µg/mL.
Turning to `CCOc1cncc(-c2ccc3ncc4c(c3c2)n(-c2cn(C)nc2C)c(=O)n4C)c1` [Example 56.1, 1-(1,3-Dimethyl-1H-pyrazol-4-yl)-8-(5-ethoxy-pyridin-3-yl)-3-methyl-1,3-dihydro-imidazo[4,5-c]quinolin-2-one], the IC50 worked out at 50 nM in data set [1], 6 nM in data set [2], 6 nM in data set [4] and 29 nM in data set [5]. In data set [3], the solubility stood at 25 µg/mL (≈ 60.3 µM).
As for `CCn1cc(-n2c(=O)n(C)c3cnc4ccc(-c5cnc(OC)nc5)cc4c32)c(C)n1` [Example 17.1, 1-(1-Ethyl-3-methyl-1H-pyrazol-4-yl)-8-(2-methoxy-pyrimidin-5-yl)-3-methyl-1,3-dihydro-imidazo[4,5-c]quinolin-2-one], the half-maximal inhibitory concentration (IC50) in data set [1] was 103 nM; in data set [2], 20 nM; in data set [4] it was 120 nM; in data set [5], 57 nM. Further, in data set [3], the solubility stood at 81 µg/mL (≈ 195 µM).
For `Cc1nn(C)cc1-n1c(=O)n(C)c2cnc3ccc(-c4cnc5c(c4)C(C)(C)C(=O)N5C)cc3c21` [Example 233, 1-(1,3-Dimethyl-1H-pyrazol-4-yl)-3-methyl-8-(1,3,3-trimethyl-2-oxo-2,3-dihydro-1H-pyrrolo[2,3-b]pyridin-5-yl)-1,3-dihydro-imidazo[4,5-c]quinolin-2-one], in that order: 26 nM, 15 nM, 39 nM, 55 nM and 11 µg/mL (≈ 23.5 µM).
On to `CNc1ncc(-c2ccc3ncc4c(c3c2)n(-c2cn(C)nc2C)c(=O)n4C)cc1Cl` [Example 146.1, 8-(5-Chloro-6-methylamino-pyridin-3-yl)-1-(1,3-dimethyl-1H-pyrazol-4-yl)-3-methyl-1,3-dihydro-imidazo[4,5-c]quinolin-2-one], for which the IC50 in data set [1] was 24 nM; in data set [2] it was 16 nM; in data set [4], 45 nM; in data set [5] it was 9 nM. Further, the solubility in data set [3] was greater than 434 µg/mL.
`COC(C)(C)c1cncc(-c2ccc3ncc4c(c3c2)n(-c2cn(C)nc2C)c(=O)n4C)c1` [Example 239, 1-(1,3-Dimethyl-1H-pyrazol-4-yl)-8-[5-(1-methoxy-1-methyl-ethyl)-pyridin-3-yl]-3-methyl-1,3-dihydro-imidazo[4,5-c]quinolin-2-one]: the IC50 came out at 41 nM in data set [1], 3 nM in data set [2], 13 nM in data set [4] and 94 nM in data set [5]. In addition, in data set [3], the solubility turned out to be 125 µg/mL (≈ 282 µM).
For `CCNC(=O)c1cc(-c2ccc3ncc4c(c3c2)n(-c2cn(C)nc2C)c(=O)n4C)cnc1NC` [Example 242.1, 5-[1-(1,3-Dimethyl-1H-pyrazol-4-yl)-3-methyl-2-oxo-2,3-dihydro-1H-imidazo[4,5-c]quinolin-8-yl]-N-ethyl-2-methylamino-nicotinamide] the same measures were 85 nM, 10 nM, 67 nM, 94 nM and 5 µg/mL (≈ 10.6 µM).
